Source: ChEMBL document CHEMBL5532761, “Rosavin improves insulin resistance and alleviates hepatic and kidney damage via modulating the cGAS-STING pathway and autophagy signaling in HFD/STZ-induced T2DM animals” (2024)
The source made the active and inactive calls. No cut-off for these calls is given here.

Experiments:
Rattus norvegicus [1] = test: (§1) Antidiabetic activity in high fat diet-STZ induced diabetic Wistar rat model assessed as protection against periportal mononuclear inflammatory cell infiltration in liver at 10 mg/kg, ip pretreated with high fat diet for 4 weeks followed by 8 hrs fasting after STZ administration and measured 4 weeks after compound treatment by hematoxylin and eosin staining based microscopic analysis; type: functional, organism-based
Rattus norvegicus [2] = test: (§2) Antidiabetic activity in high fat diet-STZ induced diabetic Wistar rat model assessed as AST level at 10 mg/kg, ip pretreated with high fat diet for 4 weeks followed by 8 hrs fasting after STZ administration and measured 4 weeks after compound treatment (reference value: 136.3 +/- 22.8 IU/L); type: functional
Rattus norvegicus [3] = test: (§3) Antidiabetic activity in ip dosed high fat diet-STZ induced diabetic Wistar rat model assessed as reduction of DDX58 mRNA expression in liver pretreated with high fat diet for 4 weeks followed by 8 hrs fasting after STZ administration and measured 4 weeks after compound treatment by RT-qPCR analysis; type: functional, organism-based; conditions: dose 10-30 mg/kg
Rattus norvegicus [4] = test: (§4) Antidiabetic activity in high fat diet-STZ induced diabetic Wistar rat model assessed as HOMA-IR level at 30 mg/kg, ip pretreated with high fat diet for 4 weeks followed by 8 hrs fasting after STZ administration and measured 4 weeks after compound treatment (reference value: 21.51 +/- 2.17); type: functional
Rattus norvegicus [5] = test: (§5) Antidiabetic activity in high fat diet-STZ induced diabetic Wistar rat model assessed as mean area percentage of TNF alpha in liver at 10 mg/kg, ip pretreated with high fat diet for 4 weeks followed by 8 hrs fasting after STZ administration and measured after 4 weeks of compound treatment by immunohistochemistry based microscopic analysis (reference value: 18.28 +/- 1.31 %); type: functional
Rattus norvegicus [6] = test: as §1, with “reduction in interstitial” for “protection against periportal mononuclear”, “kidney” for “liver”; type: functional, organism-based
Rattus norvegicus [7] = test: as §3, with “kidney” for “liver”; type: functional, organism-based; conditions: dose 10-30 mg/kg
Rattus norvegicus [8] = test: as §1, with “reduction” for “protection against periportal mononuclear inflammatory cell infiltration”, “persistent tubular dilation in kidney” for “liver”, “20” for “10”; type: functional, organism-based
Rattus norvegicus [9] = test: (§6) Antidiabetic activity in high fat diet-STZ induced diabetic Wistar rat model assessed as ALT level at 20 mg/kg, ip pretreated with high fat diet for 4 weeks followed by 8 hrs fasting after STZ administration and measured 4 weeks after compound treatment (reference value: 152.1 +/- 23.64 IU/L); type: functional
Rattus norvegicus [10] = test: as §4, with “insulin” for “HOMA-IR”, “level in serum” for “level”, “treatment by ELISA” for “treatment”, “16.53” for “21.51”, “1.14 microU/ml)” for “2.17)”; type: functional
Rattus norvegicus [11] = test: as §1, with “reduction in focal necrotic lesions” for “protection against periportal mononuclear inflammatory cell infiltration”, “20” for “10”; type: functional, organism-based
Rattus norvegicus [12] = test: as §1, with “reduction in degenerative changes” for “protection against periportal mononuclear inflammatory cell infiltration”, “30” for “10”; type: functional, organism-based
Rattus norvegicus [13] = test: as §1, with “reduction” for “protection against periportal mononuclear inflammatory cell infiltration”, “luminal exfoliation of epithelial cells in kidney” for “liver”, “30” for “10”; type: functional, organism-based
Rattus norvegicus [14] = test: as §3, with “STING” for “DDX58”, “kidney” for “liver”; type: functional, organism-based; conditions: dose 10-30 mg/kg
Rattus norvegicus [15] = test: as §2, with “urine albumin to creatinine ratio” for “AST level”, “87.13” for “136.3”, “9.75 mg/g)” for “22.8 IU/L)”; type: functional
Rattus norvegicus [16] = test: as §3, with “in” for “in ip dosed”, “increase in AC074117.2 lncRNA” for “reduction of DDX58 mRNA”, “adipose tissue at 10 to 30 mg/kg, ip” for “liver”; type: functional, organism-based; conditions: dose 10-30 mg/kg
Rattus norvegicus [17] = test: as §1, with “preserved integrity of tubular epithelium” for “protection against periportal mononuclear inflammatory cell infiltration”, “kidney” for “liver”, “20 to 30” for “10”; type: functional, organism-based; conditions: dose 20-30 mg/kg
Rattus norvegicus [18] = test: as §1, with “reduction in” for “protection against periportal mononuclear”, “infiltrates” for “infiltration”, “30” for “10”; type: functional, organism-based
Rattus norvegicus [19] = test: as §1, with “replacement of hepatocellular necrosis with” for “periportal mononuclear”, “cells” for “cell infiltration in liver”; type: functional, organism-based
Rattus norvegicus [20] = test: as §3, with “STING” for “DDX58”, “adipose tissue” for “liver”; type: functional, organism-based; conditions: dose 10-30 mg/kg
Rattus norvegicus [21] = test: as §6, with “glucose” for “ALT”, “level in serum” for “level”, “527.7” for “152.1”, “49.1 mg%)” for “23.64 IU/L)”; type: functional
Rattus norvegicus [22] = test: Antidiabetic activity in ip dosed high fat diet-STZ induced diabetic Wistar rat model assessed as reduction of ZBP1 mRNA expression in kidney pretreated with high fat diet for 4 weeks followed by 8 hrs fasting after STZ administration and measured 4 weeks after compound treatment by RT-qPCR analysis; type: functional, organism-based; conditions: dose 10-30 mg/kg
Rattus norvegicus [23] = test: as §6, with “cholesterol” for “ALT”, “10.39” for “152.1”, “1.3 mmol/L)” for “23.64 IU/L)”; type: functional
Rattus norvegicus [24] = test: as §1, with “reduction in epididymal adipocyte” for “protection against periportal mononuclear inflammatory”, “size” for “infiltration”, “adipose tissue” for “liver”, “20 to 30” for “10”; type: functional, organism-based; conditions: dose 20-30 mg/kg
Rattus norvegicus [25] = test: as §6, with “LDL-cholesterol” for “ALT”, “6.54” for “152.1”, “0.918 mmol/L)” for “23.64 IU/L)”; type: functional
Rattus norvegicus [26] = test: as §1, with “reduction in” for “protection against periportal mononuclear”, “infiltrates” for “cell infiltration”, “kidney” for “liver”, “20” for “10”; type: functional, organism-based
Rattus norvegicus [27] = test: Antidiabetic activity in high fat diet-STZ induced diabetic Wistar rat model assessed as creatinine level at 30 mg/kg, ip pretreated with high fat diet for 4 weeks followed by 8 hrs fasting after STZ administration and measured 4 weeks after compound treatment (reference value: 3.88 +/- 0.502 mg%); type: functional
Rattus norvegicus [28] = test: Antidiabetic activity in ip dosed high fat diet-STZ induced diabetic Wistar rat model assessed as reduction of miR-1976 expression in kidney pretreated with high fat diet for 4 weeks followed by 8 hrs fasting after STZ administration and measured 4 weeks after compound treatment by RT-qPCR analysis; type: functional, organism-based; conditions: dose 10-30 mg/kg
Rattus norvegicus [29] = test: as §2, with “cholesterol” for “AST”, “10.39” for “136.3”, “1.3 mmol/L)” for “22.8 IU/L)”; type: functional
Rattus norvegicus [30] = test: Antidiabetic activity in high fat diet-STZ induced diabetic Wistar rat model assessed as ALT level at 30 mg/kg, ip pretreated with high fat diet for 4 weeks followed by 8 hrs fasting after STZ administration and measured 4 weeks after compound treatment (reference value: 152.1 +/- 23.64 IU/L); type: functional
Rattus norvegicus [31] = test: as §5, with “LC3B” for “TNF alpha”, “kidney” for “liver”, “30” for “10”, “2.47” for “18.28”, “0.356” for “1.31”; type: functional
Rattus norvegicus [32] = test: as §4, with “HDL-cholesterol” for “HOMA-IR”, “0.688” for “21.51”, “0.288 mmol/L)” for “2.17)”; type: functional

Question: Which results are given for `O[C@@H]1[C@@H](O)[C@H](OC/C=C/c2ccccc2)O[C@H](CO[C@@H]2OC[C@H](O)[C@H](O)[C@H]2O)[C@H]1O`?
Answer: Activity (Rattus norvegicus [1]): inactive; Activity (Rattus norvegicus [2]): 83.63 IU/L; Activity (Rattus norvegicus [3]): Dose-Dependent Effect; Activity (Rattus norvegicus [4]): 1.73; Activity (Rattus norvegicus [5]): 11.3%; Activity (Rattus norvegicus [6]): Active; Activity (Rattus norvegicus [7]): Dose-Dependent Effect; Activity (Rattus norvegicus [8]): Active; Activity (Rattus norvegicus [9]): 42.38 IU/L; Activity (Rattus norvegicus [10]): 5.64 uU/ml; Activity (Rattus norvegicus [11]): Active; Activity (Rattus norvegicus [12]): Active; Activity (Rattus norvegicus [13]): Active; Activity (Rattus norvegicus [14]): Dose-Dependent Effect; Activity (Rattus norvegicus [15]): 50.75 mg/g; Activity (Rattus norvegicus [16]): Active; Activity (Rattus norvegicus [17]): Active; Activity (Rattus norvegicus [18]): Active; Activity (Rattus norvegicus [19]): inactive; Activity (Rattus norvegicus [20]): Dose-Dependent Effect; Activity (Rattus norvegicus [21]): 174.8 mg%; Activity (Rattus norvegicus [22]): Dose-Dependent Effect; Activity (Rattus norvegicus [23]): 4.27 mmol/L; Activity (Rattus norvegicus [24]): Active; Activity (Rattus norvegicus [25]): 2.13 mmol/L; Activity (Rattus norvegicus [26]): Active; Activity (Rattus norvegicus [27]): 0.769 mg%; Activity (Rattus norvegicus [28]): Dose-Dependent Effect; Activity (Rattus norvegicus [29]): 6.09 mmol/L; Activity (Rattus norvegicus [30]): 18.13 IU/L; Activity (Rattus norvegicus [31]): 12.7%; Activity (Rattus norvegicus [32]): 1.39 mmol/L
